In ChEMBL document CHEMBL1833897, “Lead generation of heat shock protein 90 inhibitors by a combination of fragment-based approach, virtual screening, and structure-based drug design” (Bioorg Med Chem Lett, 2011):

What was measured:
[1] = target: T1, Heat shock protein HSP 90-alpha (Homo sapiens, UniProt P07900)
Description: Binding affinity to human HSP90alpha assessed as 2D1H-15N chemical shift perturbation by NMR spectroscopy

[2] = target: T1, Heat shock protein HSP 90-alpha; remark: listed apart in the source
Description: Inhibition of human N-terminal GST-tagged HSP90alpha expressed in Escherichia coli after 1 hr using 10 mM of ATP and malachite green by microplate reader

[3] = target: T1, Heat shock protein HSP 90-alpha; remark: listed apart in the source
Description: Binding affinity to biotinylated N-terminal human HSP90alpha using of streptavidin coated surface by SPR binding assay

| Kd [1] | IC50 [2] | Kd [3] | Structure (SMILES) |
| --- | --- | --- | --- |
| > 1 µM |  |  | CSc1nc(N)nc(-c2ccncc2)n1 |
| 79 µM |  |  | Nc1cnccn1 |
| 3.7 µM | 24 µM |  | CSc1nc(N)nc(SCc2ccc(Cl)cc2)n1 |
|  | 16 µM |  | CSc1nc(N)nc(SCc2ccccc2)n1 |
| 4.5 µM | 0.57 µM |  | CSc1nc(N)nc(-c2ccccc2C)n1 |
| 0.33 µM |  |  | Nc1ncc2c(n1)-c1ccoc1CC2 |
| 0.34 µM |  |  | CCCc1nc(N)ncc1C(=O)OCC |
| 0.57 µM |  |  | Nc1nccc(-c2nccs2)n1 |
| > 1 µM |  |  | CC(=O)c1cnc(N)nc1C |
| 300 µM |  |  | Nc1ccncn1 |
| 2.3 µM | 33 µM |  | CSc1nc(N)nc(SCCN2CCOCC2)n1 |
|  |  | 750 nM | Oc1ccc2c(c1)CCc1c[nH]nc1-2 |
| 51 µM | 31 µM |  | CSc1nc(N)nc(-c2ccccc2)n1 |

| Structure (SMILES) | Kd [1] | IC50 [2] | Kd [3] |
| --- | --- | --- | --- |
| Nc1ncncn1 | 10 µM |  |  |
